A short description of data set [1]: pH-drift assay, calcium phosphate. The protocol: A solution supersaturated with respect to calcium phosphate is prepared by separately pipetting 0.1 ml of 1.32 M CaCl2 dihydrate and 0.1 ml of 0.90 M NaHl PO4 into 29.8 ml of distilled water. This yields initial concentrations of 4.4 mM Ca^2+ and 3.0 mM dissolved inorganic phosphorus (DIP). The reaction vessel is a 50 ml, round-bottom, 3-necked flask partially immersed in a thermostated water bath at 20° C. The reaction vessel is closed to the atmosphere. The reaction begins upon mixing the reactants with an initial pH of 7.4.
Amorphous calcium phosphate (ACP) nucleates immediately and slowly grows as indicated by a slight decrease in pH during the first 30 minutes or so of the assay. Following this, ACP begins to transform to calcium hydroxylapatite (HAP), Ca10 (PO4)6 (OH)2, as indicated by a marked acceleration in the downward pH drift. The reaction ceases as reactants are depleted and the pH is lowered.
^1 Assay Conditions: Ca at 4.4 mM, dissolved inorganic phosphorus at […]

Data set [2] is described as follows: pH-drift assay, calcium carbonate. The method, then: A solution supersaturated with respect to CaCO03 is prepared by separately pipetting 0.3 ml of 1.0 M CaCl2 dihydrate and 0.6 ml of 0.5 M NaHCO3 into 29.1 ml of artificial seawater (0.5 NaCl, 0.011 M KCl). The reaction vessel is a 50 ml, 3-necked, round-bottom flask partially immersed in a thermostated water bath at 20° C. The reaction vessel is closed to the atmosphere to minimize exchange of CO2 The reaction is started by adjusting the pH upward to 8.3 by titration of μl amounts of 1 N NaOH by digital pipette. The initial concentrations are 10 mM each of Ca^2+ and dissolved inorganic carbon (DIC). The reaction is monitored by pH electrode and recorded by strip chart.
The reaction may be quantified by calculations based on DIC equilibria to give the amount of precipitation versus time.
The conditions of the assay were […] dissolved inorganic carbon at 20° C. and 30 ml of artificial seawater (0.5 M NaCl, 0.01 M KCl).

A short description of data set [3]: constant composition assay, CaCO3. As to conditions: FIG. 5, pH 8.30 held constant, 20° C., doses matched for about 2 hours stabilization. The method, then: A 50 ml solution of 10 mM CaCl2 and 10 mM dissolved inorganic carbon (DIC) was adjusted to pH 8.34 by digital pipetting of μl amounts of 1 N NaOH. The temperature was held constant at 20° C. using a water-jacketed reaction vessel and a thermostated bath. After about a 6 minute period during which CaCO3 nucleation occurs, the pH beings to drift downward as Ca^2+ and CO3^2- ions are removed from solution as solid crystals. At pH 8.30, inhibitors were added which stabilized the pH drift for certain periods of time. The concentrations of inhibitors used in the experiments shown in FIG. 5 were matched so that the amount of stabilization or inhibition of nucleation was the same, in this case about 2 hours. The doses required for this effect ranged between 0.1 to 0.5 μg/ml of inhibitor depending on the type When crystallization began again, the pH would drift downward. However, it was held constant at pH 8.30±0.02 by automatic titration of 0.5 M CaCl2 and 0.5 M NaCO3 from separate burettes linked via the pH electrode to a computer-assisted titrimeter.

For data set [4] the following is noted: inhibitor 37 μg/ml; adapted from Hay et al. 1979; cited from earlier work.

The values below come from patent US4866161A, “Inhibition of tartar deposition by polyanionic/hydrophobic peptides and derivatives thereof which have a clustered block copolymer structure” (University of South Alabama, priority 1987, dated 1989).

Like-named read-outs stand apart in the source and are kept apart here. Ends that are not written are not given here.

As for `O=P(O)(O)CN(CCN(CP(=O)(O)O)CP(=O)(O)O)CCN(CP(=O)(O)O)CP(=O)(O)O` [DENTPP, diethylene triamine pentamethylene phosphonic acid], in data set [1] (inhibitor 5 μg/ml), the “PERIOD OF ACP FORMATION” value worked out at 100 min; the “pH/min, ACP FORMATION” value amounted to 0.0012 pH/min; the “pH/min, APATITE FORMATION” value is on record as 0.019 pH/min.
In the case of “AAAAAAAAAADDDDDDDDDD [H--(Ala)10 --(Asp)10 --OH]”, the “inhibitory activity on CaCO3 crystallization, comparison of Table 1 in words” value in data set [2] (Table 1) is reported as “decreased activity”.
With “AAAAAAGDGDGDGDGDGDGD [H--(ALA)6 --(GLY-13 ASP)7 --OH, poly (Asp-Gly)7 (Ala)6]”, the “inhibition of crystal nucleation (duration of induction period), in words” value in data set [2] (FIG. 6, equal doses, artificial seawater, 20° C.) is “very little activity relative to the control curve”. Further, in data set [2] (peptide 0.20 μg/ml), the “CRYSTAL GROWTH RATE” value stood at 0.048 ± 0.0042 pH/MIN and the “INDUCTION PERIOD” value is 7.2 ± 0.83 min.
As to “DDDDDDDDDDDDDDDDDDDD [H--(ASP)20--OH, poly (Asp)20]”, the “CRYSTAL GROWTH RATE” value in data set [2] (peptide 0.02 μg/ml) was 0.047 ± 0.0030 pH/MIN; in data set [2] (peptide 0.035 μg/ml) it was 0.041 ± 0.0050 pH/MIN. The results for the “INDUCTION PERIOD” value in data set [2] (peptide 0.02 μg/ml), in data set [2] (peptide 0.035 μg/ml) and in data set [2] (peptide 0.050 μg/ml) were 21.5 ± 0.50 min, 39.2 ± 10.8 min and over 180 min, respectively.
For “GDGDGDGDGDGDGDGDGDGD [H--(GLY--ASP)10 --OH]”, in data set [2] (peptide 0.1 μg/ml), the “CRYSTAL GROWTH RATE” value is reported as 0.047 ± 0.0097 pH/MIN and the “INDUCTION PERIOD” value was determined as 36.0 ± 5.20 min.
As for “GSDGSDGSDGSDGSDGSDGSD [H--(GLY--SER--ASP)7 --OH]”, in data set [2] (peptide 0.1 μg/ml), the “CRYSTAL GROWTH RATE” value was 0.057 ± 0.0034 pH/MIN and the “INDUCTION PERIOD” value amounted to 5.83 ± 1.04 min.
For the molecule H--(ALA)10 (ASP)15 --OH, in data set [2] (peptide 0.050 μg/ml), the “CRYSTAL GROWTH RATE” value came to 0.042 ± 0.0039 pH/MIN and the “INDUCTION PERIOD” value turned out to be 32.0 ± 10.4 min.
Consider “Polyaspartate [Polyaspartate, MW 15,000]”, for which the “pH/min, ACP FORMATION” value in data set [1] (inhibitor 10 μg/ml) is on record as 0.0040 pH/min; in data set [1] (inhibitor 15 μg/ml), 0.0050 pH/min. The results for the “pH/min, APATITE FORMATION” value in data set [1] (inhibitor 10 μg/ml) and in data set [1] (inhibitor 15 μg/ml) were 0.106 pH/min and 0.070 pH/min, respectively. The “PERIOD OF ACP FORMATION” value in data set [1] (inhibitor 10 μg/ml, Ca 4.4 mM, DIP 3.0 mM, initial pH 7.40, 20° C.) worked out at 30 min; in data set [1] (inhibitor 15 μg/ml) it was 48 min.
In the case of Polyaspartate [matrix analog], in data set [3], the “rate of crystallization after the period of stabilization” value is “not observed”.
For “SDSDSDSDSDSDSDSDSDSD [H--(SER--ASP)10 --OH]”, in data set [2] (peptide 0.1 μg/ml), the “CRYSTAL GROWTH RATE” value is reported as 0.048 ± 0.0040 pH/MIN and the “INDUCTION PERIOD” value came to 29.8 ± 4.99 min.
In the case of “Statherin: salivary protein, most effective inhibitor among salivary proteins that regulate mineral deposition in the oral cavity (DSSEEKFLRRIGRFGYGYGPYQPVPEQPLYPQPYQPQYQQYTF; UniProt P02808 20-62, looked up)”, in data set [4], the “PERIOD OF ACP FORMATION” value is 48 min; the “pH/min, ACP FORMATION” value is reported as 0.0045 pH/min; the “pH/min, APATITE FORMATION” value is listed as 0.0090 pH/min.
